In brackets after ≈: the same amount, converted by molar mass.
What was measured:
[1] = test system: leukocyte recruitment to the bronchoalveolar space in OVA-induced allergic Balb/c mice; test: BAL fluid total and differential leukocyte counts in OVA-induced allergic asthma; assay type: in vivo; settings: 4 weeks, vs Sham
Method: (§1) In Protocol 2, the test compounds Bud (MW: 430.53 g/mol) and Bud-21 P Na2 (MW: 554.48 g/mol) were administered at equimolar doses of 3, 10 and 30 nmol/animal/day, equivalent to 1.3, 4.3 and 12.9 μg/animal/day of Bud, 1.7, 5.5 and […] of Bud-21 P Na2, respectively. The compounds were dissolved in 10% sterile saline+90% DMSO (Sigma Chemical Co., St. Louis, MO) at the correspondent concentrations at which the above-mentioned doses per animal result from the intra-nasal (i.n.) administration of 10 μl/animal (5 μl/nostril) of each of the solutions.
Mice were sensitized with two subcutaneous injections of 0.2 ml of OVA/Al(OH)3, with an interval of 7 days (Sham animals received the Al(OH)3 suspension in PBS with no OVA). Seven days after the second sensitization (i.e., 3rd week), the animals were nebulized twice a week with the 1% OVA solution (Sham and untreated OVA groups were nebulized with PBS) during 20 minutes for the next […]. […]
After Penh evaluation, the mice were anesthetized with inhaled isofluorane (5% v/v in O2) and blood samples were collected from the descending abdominal aorta. […] Total cell counts were determined using a Neubauer chamber, and differential counting was carried out in cytospin (Fanem Mod 2400; Sao Paulo, Brazil) preparations stained with May-Grünwald dye. […]

[2] = cited from earlier work
[3] = test system: carrageenan-induced paw edema in CD-1 mice; test: Carrageenan-induced paw edema; assay type: in vivo; settings: first phase; for time after carrageenan at which the significant inhibition level is reached (onset of effect): dose of 0.3 mg/kg, i.p.; for dose relation of anti-inflammatory effect / maximum inhibition of edema: doses 0.1, 0.3, 1 mg/kg i.p.; for maximum inhibition of edema: Bud-21 P—Na2 maximum with either 0.3 or 1 mg/kg
Method: In Protocol 1 (paw edema), the test compounds budesonide (Bud) and budesonide 21-phosphate sodium salt (Bud 21-P Na2) have been tested. Both compounds were administered in a volume of 100 μl intraperitoneally 1 hour before the induction of the inflammatory reaction. Doses of 0.1, 0.3 e 1 mg/kg were tested.
Carrageenan edema in the paw of the CD-1 mice involves the sub-plantar administration of 50 μl of 1% carrageenan and the measurement of the increase in the volume of the paw by using a hydroplethysmometer. This experimental model has a biphasic development (Posadas et al., Br J Pharmacol 2004 May; 142(2):331-338). The first phase, which is acute, is sustained by an increase in permeability accompanied by infiltration of neutrophils, which develops and resolves between 4 and 5 hours. The second phase occurs after 24 hours and is characterized by macrophage infiltration and has the characteristics of sub chronic inflammation, which reaches its maximum after 72 hours and resolves after 5 days. Bud and Bud 21-P Na2 have been tested. Both compounds were administered in a volume of 100 μl intraperitoneally 1 hour before the induction of the inflammatory reaction. Doses of 0.1, 0.3 e 1 mg/kg were tested.

[4] = test system: BK- and C48/80-induced plasma extravasation in dorsal skin of C57Bl/6 mice; test: Skin edema (plasma extravasation, Evans blue method) induced by BK or C48/80; assay type: in vivo; settings: for BK-induced plasma extravasation / reduction of C48/80-induced plasma extravasation: 2.32 μmol/kg i.p. (1.0 mg/kg Bud, 1.3 mg/kg Bud-21 P—Na2) 60 min before i.d. injection, 30 min
Method: In Protocol 3, Bud (at doses of 1.0 and 0.30 mg/kg) and Bud 21-P Na2 (at doses of 1.3 and 0.39 mg/kg) were administered on a molar base, these doses were equivalent to […] μmol/kg of each compound, respectively. The vehicle for dissolution of the compounds was sterile saline solution (0.9% NaCl) containing 12.5% DMSO (Sigma Chemical Co., St. Louis, MO). The compound solutions were prepared at concentrations such that the administered dose per kg of body weight results from the intraperitoneal (i.p.) administration of 10 ml/kg of each of the solutions.
Skin edema was assessed in mice according to the method previously described by Costa et al. (2006), Vasc. Pharmacol; 45: 209-214 and Yshii et al (2009), Toxicon; 53: 42-52. The mice were anesthetized with urethane (25% w/v, 10 ml/kg, i.p.), had their dorsal skin shaved, and thereafter i.p. treated with the vehicle/test compounds. Fifty-five minutes later, a volume of 100 μL of Evans blue dye solution (0.25% in sterile saline) was intravenously (i.v.) injected via the tail vein. Five minutes later, the BK and C48/80 were intradermally (i.d.) injected into the dorsal skin at a fixed volume of 50 μl using a randomized scheme. The same volume of Tyrode solution 50 μl was injected as a control. Thirty minutes later, a 1 ml blood sample was obtained via cardiac puncture and the mice were killed by urethane overdose followed by cervical dislocation. The blood samples were centrifuged at 6,000 g for 4 min to obtain the plasma. The dorsal skin was removed, and the injected sites were punched out using an 8 mm diameter cork borer. A non-injected skin site distant from the injection sites was also punched and taken as a blank. The dye was extracted from each piece of skin and plasma (100 μl) samples using formamide, and the absorbance of the resulting solutions was measured at 620 nm. The plasma extravasation due to each agent (expressed in μl/site) was calculated as the ratio between the absorbance of each respective skin piece, corrected by the blank value and plasma sample solutions, properly adjusted by the dilution factors [Vasc. Pharmacol (2006); 45: 209-214]. To homogenate data due to the variability of different group of animals (inter-group variations), edema data are expressed as the fold-change response relative to the mean Tyrode (control) response of each experiment.

[5] = test system: methacholine-induced bronchoconstriction in OVA-induced allergic Balb/c mice; test: Lung hyperreactivity / Penh function in OVA-induced allergic asthma; assay type: in vivo; settings: 3, 10 and 30 nmol/animal/day i.n., 4 weeks; vs untreated OVA group
Method: as §1
Chicken egg-white ovalbumin (OVA; grade V, cat. A5503, Sigma Chemical Co., St. Louis, MO) was dissolved in sterile phosphate buffered saline (PBS) solution (250 μg/ml) and Al(OH)3 was added (at 13 mg/ml). This mix was used to induce the allergic sensitization of the animals by subcutaneous injection. OVA was dissolved at 1% in sterile PBS solution and this solution was nebulized (as the immunological challenges).
Mice were sensitized with two subcutaneous injections of 0.2 ml of OVA/Al(OH)3, with an interval of 7 days (Sham animals received the Al(OH)3 suspension in PBS with no OVA). Seven days after the second sensitization (i.e., 3rd week), the animals were nebulized twice a week with the 1% OVA solution (Sham and untreated OVA groups were nebulized with PBS) during 20 minutes for the next […].
Three hours after the challenges (OVA nebulization) and daily during the next 4 weeks (following the first OVA challenge), mice were intra-nasally treated (10 μl/animal as 5 μl/nostril) with the respective compounds/vehicle, and the last dose was administered 30 min before the Penh measurement at the end of the 6th week.
Airway responsiveness in conscious, spontaneously breathing animals was measured at the end of the 6th week (i.e., after 4-week OVA challenges+treatments), 24 h after the last OVA/PBS challenge via whole body plethysmography (Buxco Europe Ltd, Winchester, UK), as previously described (Santos et al., 2014). Experiments were carried out in a quiet room by an investigator who was unaware of the nature of treatments.
Aerosolized saline (50 μl/mouse during 60 s) and then the muscarinic agonist methacholine (MCh) at increasing concentrations (3.12, 6.25, 12.5 and 25.0 mg/ml in PBS) was nebulized through an inlet of the main chamber for 3 min each to induce bronchoconstriction and readings were taken and averaged for 6 min following each nebulization. After 20 min, the baseline values usually returned at the end of this period. Enhanced pause (Penh) was measured as an indicator of bronchoconstriction and consequent increase of airway resistance as: Penh=[(expiration time/relaxation time)−1]/(maximum expiration flow/maximum inspiration flow).

[6] = at physiological pH in the intestinal region; cited from earlier work
[7] = 0.70 μmol/kg i.p. (0.30 mg/kg Bud, 0.39 mg/kg Bud-21 P—Na2)

Compound | total BAL leukocytes compared with Sham ([1]; 3 nmol/animal/day i.n.) | BAL macrophages compared with Sham ([1]; either 3 or 10 nmol/animal/day i.n.) | logP [2] | time after carrageenan at which the significant inhibition level is reached (onset of effect) [3] [h] | dose relation of anti-inflammatory effect [3] | maximum inhibition of edema [3] | BK-induced edema [4, 7] | C48/80-induced edema [4, 7] | BK-induced plasma extravasation [4] | reduction of C48/80-induced plasma extravasation [4] | Penh AUC (area under Penh vs methacholine curve) [5] | Penh Emax (maximal response) [5] | solubility in water [6] [µg/mL] | inhibition of edema formation ([3]; 0.1 mg/kg i.p. 60 min before carrageenan) [%]
CCCC1OC2CC3C4CCC5=CC(=O)C=CC5(C)C4C(O)CC3(C)C2(C(=O)CO)O1 (stereo not drawn) [Bud, 11β,21-dihydroxy-16α,17α-(butylidenebis(oxy))pregna-1,4-diene-3,20-dione] | still significantly higher than that observed in the Sham mice | still significantly higher than those observed in the Sham group | 3.2 | 6 | not dose-related | about 50% | ineffective | ineffective | abolished | approximately 50% | significant reduction of this response just at the highest dose | significant reduction of this response just at the highest dose | 28 (≈ 65 µM) | –
Budesonide 21-phosphate sodium salt [Bud-21 P—Na2] | – | – | – | 2 | dose-related anti-inflammatory effect | 70% | – | significantly inhibited | abolished | approximately 50% | significantly reduced | significantly reduced | – | 50
